Test results published in US12577216B2, “Triazine benzoate compound and application thereof” (SHENYANG SINOCHEM AGROCHEMICALS R&D CO., LTD., priority 2020, dated 2026).
Like-named read-outs stand apart in the source and are kept apart here.

Legend:
Format in all cases: in vivo
zinnia = experiment: Determination of herbicidal activity, post-emergence stem and leaf spray, zinnia; conditions: for control effects on zinnia: 150 g a.i./hm^2, after emergence, visual 0-100%; for Herbicidal activity for Zinnia, control effect %: Table 3 parallel comparison
Procedure: (§1) Seeds of broadleaf weeds (zinnia and piemarker) or grassy weeds (green bristlegrass and barnyard grass) were respectively sown in a paper cup having a diameter of 7 cm and containing nutrient soil; after sowing, the seeds were covered with 1 cm of soil; the soil was pressed and watered, and then the seeds were cultivated in a greenhouse according to a conventional method; and stems and leaves were sprayed after 2-3 leaf stage of the weeds.
(§2) After the original medicinal acetone was dissolved, the test requires to use 1‰ of Tween 80 to stand in running water to prepare the solution to be tested with a required concentration. According to the design dose of the test, spray treatment was carried out on a track-type crop sprayer (designed and produced by British Engineer Research Ltd.) (spray pressure is 1.95 kg/cm^2, spray volume is 500 L/hm^2 and track speed is 1.48 km/h). The test was repeated for three times. The test material was treated and then placed in an operation hall. The medicinal liquid was naturally dried in the shade, and then was placed in a greenhouse and managed according to the conventional method. The response of the weeds to the drug was observed and recorded. After treatment, the control effects of the test drug on the weeds were visually inspected regularly, expressed by 0-100%. “0” represents no control effect and “100%” represents complete killing.

green bristlegrass = experiment: Determination of herbicidal activity, post-emergence stem and leaf spray, green bristlegrass; conditions: for Herbicidal activity for Green Bristlegrass, control effect %: Table 5 parallel comparison
Procedure: as §1, §2

piemarker = experiment: Determination of herbicidal activity, post-emergence stem and leaf spray, piemarker; conditions: for Herbicidal activity for Piemarker, control effect %: Table 4 parallel comparison; for pest or weed control at 150 g/ha: post-emergence, read-out: control effects on piemarker
Procedure: as §1, §2

barnyard grass = experiment: Determination of herbicidal activity, post-emergence stem and leaf spray, barnyard grass; conditions: for Herbicidal activity for Barnyard Grass, control effect %: Table 6 parallel comparison
Procedure: as §1, §2

[1] = 2.34 g a.i./hm^2, after emergence
[2] = 9.375 g a.i./hm^2, after emergence
[3] = 37.5 g a.i./hm^2, after emergence
[4] = 150 g a.i./hm^2, after emergence, visual 0-100%
[5] = Table 2, 9.375 g a.i./hm^2, after emergence
[6] = Table 2, 37.5 g a.i./hm^2, after emergence

Row | Compound | control effects on zinnia (zinnia) [%] | Herbicidal activity for Zinnia, control effect % (zinnia; [1]) [%] | Herbicidal activity for Zinnia, control effect % (zinnia; [2]) [%] | Herbicidal activity for Green Bristlegrass, control effect % (green bristlegrass; [2]) [%] | Herbicidal activity for Green Bristlegrass, control effect % (green bristlegrass; [3]) [%] | control effects on piemarker (piemarker; [4]) [%] | Herbicidal activity for Barnyard Grass, control effect % (barnyard grass; [2]) [%] | Herbicidal activity for Barnyard Grass, control effect % (barnyard grass; [3]) [%] | Herbicidal activity for Piemarker, control effect % (piemarker; [1]) [%] | Herbicidal activity for Piemarker, control effect % (piemarker; [2]) [%] | also measured
1 | CC#CCOC(=O)C(C)OC(=O)c1cc(-n2c(=O)n(C)c(=S)n(C)c2=O)c(F)cc1Cl (centres unmarked) [Compound 287] | 100 | 80 | 100 | 50 | 70 | 100 |  |  |  |  | 
2 | CCOC(=O)[C@H](C)OC(=O)c1cc(-n2c(=O)n(C)c(=S)n(C)c2=O)c(F)cc1Cl [Compound 250] | 100 | 80 | 95 | 70 | 90 | 100 | 90 | 100 | 85 | 100 | Zinnia, control effect % (zinnia; [5]): 70%; Zinnia, control effect % (zinnia; [6]): 98%; Barnyard Grass, control effect % (barnyard grass; [5]): 50%; Barnyard Grass, control effect % (barnyard grass; [6]): 90%; Green Bristlegrass, control effect % (green bristlegrass; [5]): 100%; Green Bristlegrass, control effect % (green bristlegrass; [6]): 100%; Piemarker, control effect % (piemarker; [5]): 98%; Piemarker, control effect % (piemarker; [6]): 100%
3 | Cn1c(=S)n(C)c(=O)n(-c2cc(C(=O)OCC(=O)OCC3CCCO3)c(Cl)cc2F)c1=O (centres unmarked) [Compound 246] | 100 | 95 | 95 | 80 | 90 | 100 | 95 | 98 |  |  | 
4 | Cn1c(=S)n(C)c(=O)n(-c2cc(C(=O)OCC(=O)OCCCCl)c(Cl)cc2F)c1=O [Compound 222, 2-chloro-4-fluoro-5-(3,5-dimethyl-2,6-dioxo-4-thio-1,3,5-triazine-1-yl)benzoic acid (3-chloropropoxycarbonyl) methyl ester] | 100 | 100 | 100 | 60 | 90 |  |  |  |  |  | pest or weed control at 150 g/ha (piemarker; [4]): 100%
5 | CC(OC(=O)c1cc(-n2c(=O)n(C)c(=S)n(C)c2=O)c(F)cc1Cl)C(=O)OC/C=C/Cl (centres unmarked) [Compound 281, (E)-2-chloro-4-fluoro-5-(3,5-dimethyl-2,6-dioxo-4-thio-1,3,5-triazine-1-yl)benzoic acid (1-(3-chloroallyloxycarbonyl))ethyl ester] | 100 | 90 | 100 | 60 | 90 |  |  |  |  |  | pest or weed control at 150 g/ha (piemarker): 100%
6 | Cn1c(=S)n(C)c(=O)n(-c2cc(C(=O)OCC(=O)OCC3COC(C)(C)O3)c(Cl)cc2F)c1=O (centres unmarked) [Compound 247] | 100 | 100 | 100 | 60 | 90 | 100 |  |  |  |  | 
7 | C=CCOC(=O)[C@@H](C)Oc1cc(-n2c(=O)n(C)c(=S)n(C)c2=O)c(F)cc1Cl [KC2, reference compound] |  |  |  | 20 | 50 |  | 75 | 90 |  |  | 
8 | CC(OC(=O)c1cc(-n2c(=O)n(C)c(=S)n(C)c2=O)c(F)cc1Cl)C(=O)OCC1CC1 (centres unmarked) [Compound 291] | 100 | 85 | 100 |  |  | 100 | 90 | 100 | 85 | 100 | 
9 | CC(OC(=O)c1cc(-n2c(=O)n(C)c(=S)n(C)c2=O)c(F)cc1Cl)C(=O)OCCCl (racemic) [Compound 265] | 100 |  |  |  |  | 100 |  |  | 90 | 100 | 
10 | CC(OC(=O)c1cc(-n2c(=O)n(C)c(=S)n(C)c2=O)c(F)cc1Cl)C(=O)OCC1CCCC1 (centres unmarked) [Compound 293] | 100 | 90 | 100 |  |  | 100 |  |  | 85 | 100 | 
11 | CC(OC(=O)c1cc(-n2c(=O)n(C)c(=S)n(C)c2=O)c(F)cc1Cl)C(=O)OCCCCl (racemic) [Compound 268] | 100 | 85 | 100 |  |  | 100 |  |  |  |  | 
12 | C[C@H](OC(=O)c1cc(-n2c(=O)n(C)c(=S)n(C)c2=O)c(F)cc1Cl)C(=O)OCCCl [Compound 267] | 100 | 85 | 100 |  |  |  |  |  | 90 | 100 | pest or weed control at 150 g/ha (piemarker; [4]): 100%
13 | CCOC(=O)C(OC(=O)c1cc(-n2c(=O)n(C)c(=S)n(C)c2=O)c(F)cc1Cl)C(C)C (centres unmarked) [Compound 305] | 100 |  |  |  |  | 100 |  |  |  |  | 
14 | CC(OC(=O)c1cc(-n2c(=O)n(C)c(=S)n(C)c2=O)c(F)cc1Cl)C(=O)OCCF (centres unmarked) [Compound 264] | 100 | 90 | 100 |  |  | 100 |  |  |  |  | 
15 | CCC(OC(=O)c1cc(-n2c(=O)n(C)c(=S)n(C)c2=O)c(F)cc1Cl)C(=O)OCCF (centres unmarked) [Compound 300, 2-chloro-4-fluoro-5-(3,5-dimethyl-2,6-dioxo-4-thio-1,3,5-triazine-1-yl)benzoic acid (1-(2-fluoroethoxycarbonyl))propyl ester] | 100 |  |  |  |  |  |  |  |  |  | pest or weed control at 150 g/ha (piemarker; [4]): 100%
16 | Cn1c(=S)n(C)c(=O)n(-c2cc(C(=O)OCC(=O)OCC3CC3)c(Cl)cc2F)c1=O [Compound 241, 2-chloro-4-fluoro-5-(3,5-dimethyl-2,6-dioxo-4-thio-1,3,5-triazine-1-yl)benzoic acid (cyclopropylmethoxycarbonyl) methyl ester] | 100 | 100 | 100 | 80 | 100 |  | 95 | 98 | 98 | 100 | pest or weed control at 150 g/ha (piemarker; [4]): 100%
17 | Cn1c(=S)n(C)c(=O)n(-c2cc(C(=O)OCC(=O)OCC3CO3)c(Cl)cc2F)c1=O (centres unmarked) [Compound 245] | 100 | 95 | 100 | 70 | 90 | 100 | 95 | 98 |  |  | 
18 | CCC(OC(=O)c1cc(-n2c(=O)n(C)c(=S)n(C)c2=O)c(F)cc1Cl)C(=O)OCCCCCl (centres unmarked) [Compound 303] | 100 | 85 | 100 |  |  | 100 |  |  |  |  | 
19 | CCC(OC(=O)c1cc(-n2c(=O)n(C)c(=S)n(C)c2=O)c(F)cc1Cl)C(=O)OCC1CC1 (centres unmarked) [Compound 304] | 100 | 80 | 100 |  |  | 100 |  |  |  |  | 
20 | CC(OC(=O)c1cc(-n2c(=O)n(C)c(=S)n(C)c2=O)c(F)cc1Cl)C(=O)OCC=C(Cl)Cl (centres unmarked) [Compound 283] | 100 | 100 | 100 | 50 | 85 | 100 |  |  |  |  | 
